Literature values as cited in patent US20040086873A1, “System and method of generating and storing correlated hyperquantified tissue structure and biomolecular expression datasets” (priority 2002, published 2004).

Settings: 1000 mg/kg/day, intraperitoneal injection once a day, dissolved in corn oil (~15% v/v)

## ClC(Cl)(Cl)Cl [CC14]
  toxicity of the dose level (hepatotoxic / lethal): hepatotoxic but not lethal
